Results as given in patent publication US6350585B1, “Reagent for assay of amylase isozyme activity” (priority 1998, dated 2002).
One block for each compound: values may come before it.

Key:
[1] = target: T1, P-type amylase (Calibzyme P) (Homo sapiens, UniProt P04746); assay: amylase isozyme activity assay with potassium thiocyanate as activator, P-type amylase sample; format: biochemical; conditions: for Change in absorbance, Containing Antibody (Composition A) / Change in absorbance, Without antibody (Composition B) / Relative sensitivity / Percent residual enzyme activity: P-type amylase; for Relative sensitivity: G3CNP at 900 mM = 100; for Percent residual enzyme activity: composition A/B; for relative sensitivity of P-type amylase as multiple of the standard sensitivity: standard = G3CNP at 900 mM
T1 construct: purchased International Reagents Corporation Calibzyme P
T1 sequence (P04746 16-511): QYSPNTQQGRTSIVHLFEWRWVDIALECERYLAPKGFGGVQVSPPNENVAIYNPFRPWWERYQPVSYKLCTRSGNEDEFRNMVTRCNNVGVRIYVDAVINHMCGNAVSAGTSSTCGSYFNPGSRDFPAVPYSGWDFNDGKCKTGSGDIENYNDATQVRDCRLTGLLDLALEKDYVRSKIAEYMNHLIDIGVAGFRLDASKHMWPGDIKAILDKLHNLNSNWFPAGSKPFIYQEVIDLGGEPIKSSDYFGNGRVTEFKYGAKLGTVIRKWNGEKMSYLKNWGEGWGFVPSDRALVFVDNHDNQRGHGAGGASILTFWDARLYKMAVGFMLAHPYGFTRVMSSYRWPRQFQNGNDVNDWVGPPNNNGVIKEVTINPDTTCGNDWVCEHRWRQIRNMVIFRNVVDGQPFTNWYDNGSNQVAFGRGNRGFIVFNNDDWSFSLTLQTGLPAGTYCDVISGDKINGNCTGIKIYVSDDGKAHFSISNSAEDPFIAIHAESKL
Description: A reagent for amylase isozyme activity assay comprising each composition as mentioned below was prepared. In the Table showing the composition, GalG2CNP (Example) is 2-chloro-4-nitrophenyl 4-O-β-D-galactopyranosylmaltoside, and G3CNP (Comparative Example) is 2-chloro-4-nitrophenylmaltotrioside.
S-type amylase-inhibiting antibody 88E8 (manufactured by Roche Diagnostics K.K.) 20 mg/L
S-type amylase-inhibiting antibody 66C7 (manufactured by Roche Diagnostics K.K.) 5 mg/L
(§1) Substrate (GalG2CNP (Example) or G3CNP (Comparative Example)) 2.6 mM
(2) P-type Amylase (Calibzyme P, Manufactured by International Reagents Corporation)
Each sample (0.05 mL was added to the reagent A (3 mL) and the reagent B (3 mL), respectively, and the mixtures were allowed to stand at 37° C. for 3 minutes. Then, the change in absorbance at 405 nm was assayed, and the change in absorbance per minute was calculated. The results are shown in Tables 1 and 2.
In the Tables, P is the case where P-type amylase was used as the sample, and S is the case where S-type amylase was used.
Percent residual enzyme activity (%)=(change in absorbance of composition A)/(change in absorbance of composition B)×100
Relative sensitivity (%)=(change in absorbance of composition B)/(change in absorbance of Comparative Example wherein potassium thiocyanate was 900 mM)×100

P-type amylase = target: T2, P-type amylase (Homo sapiens, UniProt P04746); assay: P-type amylase activity assay of serum with reagent E; format: biochemical; conditions: for P-type amylase activity value / Blank, change in absorbance per minute: composition E; for P-type amylase activity value: potassium thiocyanate 140 mM; for Blank, change in absorbance per minute: distilled water as sample
T2 construct: Serum (1, 2 or 3); from tissue; host or cells: serum
T2 sequence (P04746 16-511): T1 sequence (P04746 16-511)
Description: Good buffer (pH 6.2) 50 mM
S-type amylase inhibitory antibody 88E8 (manufactured by Roche Diagnostics K.K.) 15 mg/L
S-type amylase inhibitory antibody 66C7 (manufactured by Roche Diagnostics K.K.) 1.25 mg/L
Potassium thiocyanate 140 mM
as §1
(1) Distilled water (blank)
Each of the above-mentioned reagents (0.05 mL) was added to the above reagent E (3 mL) and the mixtures were left standing at 37° C. for 3 minutes. Then, change in absorbance at 405 nm was assayed and change in absorbance per minute was calculated. The obtained change in absorbance was converted to P-type amylase activity value at this composition using the molecular extinction coefficient of CNP.

- Change in absorbance, Containing Antibody (Composition A) ([1]; potassium thiocyanate 0 mM): 26.2 mABS/min
- Change in absorbance, Without antibody (Composition B) ([1]; potassium thiocyanate 0 mM): 26.7 mABS/min
- Relative sensitivity ([1]; potassium thiocyanate 0 mM): 55.7%
- Percent residual enzyme activity ([1]; potassium thiocyanate 0 mM): 98.1%
- Change in absorbance, Containing Antibody (Composition A) ([1]; potassium thiocyanate 50 mM): 40.6 mABS/min
- Change in absorbance, Without antibody (Composition B) ([1]; potassium thiocyanate 50 mM): 42.1 mABS/min
- Relative sensitivity ([1]; potassium thiocyanate 50 mM): 87.9%
- Percent residual enzyme activity ([1]; potassium thiocyanate 50 mM): 96.4%
- Change in absorbance, Containing Antibody (Composition A) ([1]; potassium thiocyanate 100 mM): 49.3 mABS/min
- Change in absorbance, Without antibody (Composition B) ([1]; potassium thiocyanate 100 mM): 51.1 mABS/min
- Relative sensitivity ([1]; potassium thiocyanate 100 mM): 106.7%
- Percent residual enzyme activity ([1]; potassium thiocyanate 100 mM): 96.5%
- Change in absorbance, Containing Antibody (Composition A) ([1]; potassium thiocyanate 140 mM): 52.4 mABS/min
- Change in absorbance, Without antibody (Composition B) ([1]; potassium thiocyanate 140 mM): 56.0 mABS/min
- Relative sensitivity ([1]; potassium thiocyanate 140 mM): 116.9%
- Percent residual enzyme activity ([1]; potassium thiocyanate 140 mM): 93.6%
- Change in absorbance, Containing Antibody (Composition A) ([1]; potassium thiocyanate 200 mM): 59.5 mABS/min
- Change in absorbance, Without antibody (Composition B) ([1]; potassium thiocyanate 200 mM): 61.9 mABS/min
- Relative sensitivity ([1]; potassium thiocyanate 200 mM): 129.2%
- Percent residual enzyme activity ([1]; potassium thiocyanate 200 mM): 96.1%
- Change in absorbance, Containing Antibody (Composition A) ([1]; potassium thiocyanate 300 mM): 66.6 mABS/min
- Change in absorbance, Without antibody (Composition B) ([1]; potassium thiocyanate 300 mM): 69.1 mABS/min
- Relative sensitivity ([1]; potassium thiocyanate 300 mM): 144.3%
- Percent residual enzyme activity ([1]; potassium thiocyanate 300 mM): 96.4%
- Change in absorbance, Containing Antibody (Composition A) ([1]; potassium thiocyanate 400 mM): 70.3 mABS/min
- Change in absorbance, Without antibody (Composition B) ([1]; potassium thiocyanate 400 mM): 71.7 mABS/min
- Relative sensitivity ([1]; potassium thiocyanate 400 mM): 149.7%
- Percent residual enzyme activity ([1]; potassium thiocyanate 400 mM): 98.0%
- Change in absorbance, Containing Antibody (Composition A) ([1]; potassium thiocyanate 500 mM): 71.3 mABS/min
- Change in absorbance, Without antibody (Composition B) ([1]; potassium thiocyanate 500 mM): 70.9 mABS/min
- Relative sensitivity ([1]; potassium thiocyanate 500 mM): 148.0%
- Percent residual enzyme activity ([1]; potassium thiocyanate 500 mM): 100.6%
- Change in absorbance, Containing Antibody (Composition A) ([1]; potassium thiocyanate 600 mM): 70.4 mABS/min
- Change in absorbance, Without antibody (Composition B) ([1]; potassium thiocyanate 600 mM): 68.0 mABS/min
- Relative sensitivity ([1]; potassium thiocyanate 600 mM): 142.0%
- Percent residual enzyme activity ([1]; potassium thiocyanate 600 mM): 103.5%
- Change in absorbance, Containing Antibody (Composition A) ([1]; potassium thiocyanate 700 mM): 67.9 mABS/min
- Change in absorbance, Without antibody (Composition B) ([1]; potassium thiocyanate 700 mM): 67.2 mABS/min
- Relative sensitivity ([1]; potassium thiocyanate 700 mM): 140.3%
- Percent residual enzyme activity ([1]; potassium thiocyanate 700 mM): 101.0%
- Change in absorbance, Containing Antibody (Composition A) ([1]; potassium thiocyanate 800 mM): 63.7 mABS/min
- Change in absorbance, Without antibody (Composition B) ([1]; potassium thiocyanate 800 mM): 62.6 mABS/min
- Relative sensitivity ([1]; potassium thiocyanate 800 mM): 130.7%
- Percent residual enzyme activity ([1]; potassium thiocyanate 800 mM): 101.8%
- Change in absorbance, Containing Antibody (Composition A) ([1]; potassium thiocyanate 900 mM): 61.6 mABS/min
- Change in absorbance, Without antibody (Composition B) ([1]; potassium thiocyanate 900 mM): 60.1 mABS/min
- Relative sensitivity ([1]; potassium thiocyanate 900 mM): 125.5%
- Percent residual enzyme activity ([1]; potassium thiocyanate 900 mM): 102.5%
- relative sensitivity of P-type amylase as multiple of the standard sensitivity ([1]; potassium thiocyanate 200 mM): about 1.3
- P-type amylase activity value (P-type amylase; Serum 1): 32.3 IU/L
- P-type amylase activity value (P-type amylase; Serum 2): 205.0 IU/L
- P-type amylase activity value (P-type amylase; Serum 3): 156.8 IU/L
- sensitivity (change in absorbance) compared with Comparative Example (P-type amylase; Table 5, serum samples): superior sensitivity
- Blank, change in absorbance per minute (P-type amylase): 0.0004 ABS/min
SMILES: O=[N+]([O-])c1ccc(O[C@H]2O[C@H](CO)[C@@H](O[C@H]3O[C@H](CO)[C@@H](O[C@@H]4O[C@H](CO)[C@H](O)[C@H](O)[C@H]4O)[C@H](O)[C@H]3O)[C@H](O)[C@H]2O)c(Cl)c1 [GalG2CNP, 2-chloro-4-nitrophenyl 4-O-β-D-galactopyranosylmaltoside]

- Change in absorbance, Containing Antibody (Composition A) ([1]; potassium thiocyanate 0 mM): 9.3 mABS/min
- Change in absorbance, Without antibody (Composition B) ([1]; potassium thiocyanate 0 mM): 9.3 mABS/min
- Relative sensitivity ([1]; potassium thiocyanate 0 mM): 19.4%
- Percent residual enzyme activity ([1]; potassium thiocyanate 0 mM): 100.0%
- Change in absorbance, Containing Antibody (Composition A) ([1]; potassium thiocyanate 50 mM): 17.1 mABS/min
- Change in absorbance, Without antibody (Composition B) ([1]; potassium thiocyanate 50 mM): 17.7 mABS/min
- Relative sensitivity ([1]; potassium thiocyanate 50 mM): 37.0%
- Percent residual enzyme activity ([1]; potassium thiocyanate 50 mM): 96.6%
- Change in absorbance, Containing Antibody (Composition A) ([1]; potassium thiocyanate 100 mM): 22.3 mABS/min
- Change in absorbance, Without antibody (Composition B) ([1]; potassium thiocyanate 100 mM): 23.4 mABS/min
- Relative sensitivity ([1]; potassium thiocyanate 100 mM): 48.9%
- Percent residual enzyme activity ([1]; potassium thiocyanate 100 mM): 95.3%
- Change in absorbance, Containing Antibody (Composition A) ([1]; potassium thiocyanate 140 mM): 26.1 mABS/min
- Change in absorbance, Without antibody (Composition B) ([1]; potassium thiocyanate 140 mM): 27.2 mABS/min
- Relative sensitivity ([1]; potassium thiocyanate 140 mM): 56.8%
- Percent residual enzyme activity ([1]; potassium thiocyanate 140 mM): 96.0%
- Change in absorbance, Containing Antibody (Composition A) ([1]; potassium thiocyanate 200 mM): 30.3 mABS/min
- Change in absorbance, Without antibody (Composition B) ([1]; potassium thiocyanate 200 mM): 31.6 mABS/min
- Relative sensitivity ([1]; potassium thiocyanate 200 mM): 66.0%
- Percent residual enzyme activity ([1]; potassium thiocyanate 200 mM): 95.9%
- Change in absorbance, Containing Antibody (Composition A) ([1]; potassium thiocyanate 300 mM): 37.3 mABS/min
- Change in absorbance, Without antibody (Composition B) ([1]; potassium thiocyanate 300 mM): 39.3 mABS/min
- Relative sensitivity ([1]; potassium thiocyanate 300 mM): 82.0%
- Percent residual enzyme activity ([1]; potassium thiocyanate 300 mM): 94.9%
- Change in absorbance, Containing Antibody (Composition A) ([1]; potassium thiocyanate 400 mM): 42.6 mABS/min
- Change in absorbance, Without antibody (Composition B) ([1]; potassium thiocyanate 400 mM): 43.7 mABS/min
- Relative sensitivity ([1]; potassium thiocyanate 400 mM): 91.2%
- Percent residual enzyme activity ([1]; potassium thiocyanate 400 mM): 97.5%
- Change in absorbance, Containing Antibody (Composition A) ([1]; potassium thiocyanate 500 mM): 46.6 mABS/min
- Change in absorbance, Without antibody (Composition B) ([1]; potassium thiocyanate 500 mM): 46.7 mABS/min
- Relative sensitivity ([1]; potassium thiocyanate 500 mM): 97.5%
- Percent residual enzyme activity ([1]; potassium thiocyanate 500 mM): 99.8%
- Change in absorbance, Containing Antibody (Composition A) ([1]; potassium thiocyanate 600 mM): 48.1 mABS/min
- Change in absorbance, Without antibody (Composition B) ([1]; potassium thiocyanate 600 mM): 47.5 mABS/min
- Relative sensitivity ([1]; potassium thiocyanate 600 mM): 99.2%
- Percent residual enzyme activity ([1]; potassium thiocyanate 600 mM): 101.3%
- Change in absorbance, Containing Antibody (Composition A) ([1]; potassium thiocyanate 700 mM): 49.9 mABS/min
- Change in absorbance, Without antibody (Composition B) ([1]; potassium thiocyanate 700 mM): 49.4 mABS/min
- Relative sensitivity ([1]; potassium thiocyanate 700 mM): 103.1%
- Percent residual enzyme activity ([1]; potassium thiocyanate 700 mM): 101.0%
- Change in absorbance, Containing Antibody (Composition A) ([1]; potassium thiocyanate 800 mM): 49.8 mABS/min
- Change in absorbance, Without antibody (Composition B) ([1]; potassium thiocyanate 800 mM): 48.8 mABS/min
- Relative sensitivity ([1]; potassium thiocyanate 800 mM): 101.9%
- Percent residual enzyme activity ([1]; potassium thiocyanate 800 mM): 102.0%
- Change in absorbance, Containing Antibody (Composition A) ([1]; potassium thiocyanate 900 mM): 48.6 mABS/min
- Change in absorbance, Without antibody (Composition B) ([1]; potassium thiocyanate 900 mM): 47.9 mABS/min
- Relative sensitivity ([1]; potassium thiocyanate 900 mM): 100.0%
- Percent residual enzyme activity ([1]; potassium thiocyanate 900 mM): 101.5%
- relative sensitivity of P-type amylase as multiple of the standard sensitivity ([1]; potassium thiocyanate 200 mM): about ⅔
- P-type amylase activity value (P-type amylase; Serum 1): 16.8 IU/L
- P-type amylase activity value (P-type amylase; Serum 2): 106.3 IU/L
- P-type amylase activity value (P-type amylase; Serum 3): 80.9 IU/L
- Blank, change in absorbance per minute (P-type amylase): 0.0006 ABS/min
SMILES: O=[N+]([O-])c1ccc(O[C@H]2O[C@H](CO)[C@@H](O[C@H]3O[C@H](CO)[C@@H](O[C@H]4O[C@H](CO)[C@@H](O)[C@H](O)[C@H]4O)[C@H](O)[C@H]3O)[C@H](O)[C@H]2O)c(Cl)c1 [Example G3CNP, 2-chloro-4-nitrophenylmaltotrioside, reference compound]
